The results in this text go back to US8785453B2, “Arylpiperazine-containing purine derivatives and uses thereof” (Green Cross Corporation, priority 2009, dated 2014).

In assay [1] the test system is mice. The experiment in a line: Synergy effect of the inventive compound combined with conventional anti-depressants in forced swimming test. In kind it is in vivo. Conditions: for anti-immobility effect in FST, anti-depressant alone: 25 mg/kg p.o.
Procedure: Each drug or vehicle was suspended in 3% Tween 80 solution and administered orally (p.o.) 60 min before forced swimming test.
Assay [2] relates to mice. In words: Anti-depressants activity in forced swimming test. The class given is in vivo. Conditions: 60 min before testing.
Procedure: Each mouse was placed in a 25 cm glass cylinder (10 cm diameter) containing 15 cm of water maintained at 22±1, and was forced to swim for 10 min. 24 hours later, the mouse was replaced into the cylinder and the total duration of immobility was recorded during the last 5 min of the 6-min testing period. Mice are judged immobile when they float in an upright position and make only small movements to keep their head above water. Test drugs were suspended in 3% Tween 80 solution, and administered orally (po) 60 min before the testing.
For assay [3], the target named is T1, human recombinant 5-HT2C receptor (Homo sapiens, UniProt P28335).
T1 construct: purchased PerkinElmer
T1 sequence (P28335 33-458): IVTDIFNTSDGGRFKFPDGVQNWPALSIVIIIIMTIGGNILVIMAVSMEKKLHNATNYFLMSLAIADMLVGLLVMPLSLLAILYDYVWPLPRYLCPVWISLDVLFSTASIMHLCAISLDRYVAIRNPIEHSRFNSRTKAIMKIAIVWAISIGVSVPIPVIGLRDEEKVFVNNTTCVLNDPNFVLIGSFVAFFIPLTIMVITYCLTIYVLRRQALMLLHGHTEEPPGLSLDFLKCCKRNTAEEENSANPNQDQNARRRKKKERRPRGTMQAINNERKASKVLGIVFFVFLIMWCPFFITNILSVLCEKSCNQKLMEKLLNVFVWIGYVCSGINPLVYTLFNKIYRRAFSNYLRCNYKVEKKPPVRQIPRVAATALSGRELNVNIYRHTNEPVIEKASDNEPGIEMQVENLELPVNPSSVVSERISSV
In words: Binding affinity for serotonin 5-HT2C receptor ([3H]Mesulergine). Conditions: CHO-K1 membranes, 1.3 nM [3H]Mesulergine; read-out: binding affinity (IC50) 5-HT2C. The protocol:
(§1) Receptor binding affinities of the compounds for serotonin receptors were measured by the method described in the literature (see [Park W K et al., Pharmacol Biochem Behav., 82(2), 361-372 (2005)].
(§2) The binding affinity (IC50) of a compound for the receptor was calculated by computerized nonlinear regression analysis (GraphPad Prism Program, San Diego, USA) using 7-8 varied concentrations of the compound run in duplicate tubes.
For serotonin 5-HT2C binding, frozen membranes from stable CHO-K1 cell line expressing the human recombinant 5-HT2C receptor (PerkinElmer, 4 μg/well), [^3H]Mesulergine (Amersham, 1.3 nM) and test compounds were added into 50 mM Tris-HCl (pH 7.4) buffer containing 0.1% ascorbic acid and 4 mM CaCl2. Nonspecific binding was determined using 100 μM mianserin. The incubations were performed for 60 min at 27, and these were terminated by rapid filtration through filtermate A glass fiber filter presoaked in 0.5% PEI.

Assay [4] has as its target T2, human serotonin transporter (Homo sapiens, UniProt P31645).
T2 construct: purchased PerkinElmer; host or cells: HEK-293 cells
In words: Binding affinity for serotonin transporter ([3H]Imipramine). Conditions: HEK-293 membrane, 2 nM [3H]Imipramine; read-out: binding affinity Serotonin Transporter. The protocol: For serotonin transporter binding assays, a reaction mixture with a final volume of 0.25 ml was prepared by mixing a test compound, human serotonin transporter membrane expressed in HEK-293 cells (PerkinElmer, 5 μg/well), [^3H] Imipramine (PerkinElmer, 2 nM) and 50 mM Tris-HCl (pH 7.4) buffer containing 120 mM NaCl and 5 mM KCl. The reaction mixture was incubated for 30 min at 27, and harvested through filtermate A glass fiber filter presoaked in 0.5% PEI with ice cold 50 mM Tris-HCl buffer (pH 7.4) containing 0.9% NaCl.

Assay [5] addresses T3, human recombinant serotonin 5-HT2A receptor (Homo sapiens, UniProt P28223).
T3 construct: purchased PerkinElmer Life and Analytical Sciences, USA; host or cells: CHO-K1 cells
In words: Binding affinity for serotonin 5-HT2A receptor ([3H]Ketanserin). Conditions: CHO-K1 cells, 1 nM [3H]Ketanserin; read-out: binding affinity (IC50) 5-HT2A. On the procedure:
as §1
For serotonin 5-HT2A binding, an aliquot of human recombinant serotonin 5-HT2A receptor (PerkinElmer Life and Analytical Sciences, USA) expressed in CHO-K1 cells (5 μg/well) and 1 nM [^3H]Ketanserin (PerkinElmer) were used in the presence of mianserin (20 μM) as a nonspecific. The reaction mixture was incubated for 60 min […] 50 mM Tris-HCl (pH 7.4) buffer containing 4 mM CaCl2 and 0.1% ascorbic acid, and harvested through filtermate A glass fiber filter (Wallac, Finland) presoaked in 0.5% polyethyleneimine (PEI) by microbeta filtermate-96 harvester (PerkinElmer) to terminate the reaction, and then washed with ice cold 50 mM Tris-HCl buffer solution (pH 7.4). The filter was then covered with MeltiLex, sealed in a sample bag, dried in an oven. The radioactivity retained in the filter was finally counted using MicroBeta Plus (Wallac).
as §2

T2 sequence (P31645 whole entry): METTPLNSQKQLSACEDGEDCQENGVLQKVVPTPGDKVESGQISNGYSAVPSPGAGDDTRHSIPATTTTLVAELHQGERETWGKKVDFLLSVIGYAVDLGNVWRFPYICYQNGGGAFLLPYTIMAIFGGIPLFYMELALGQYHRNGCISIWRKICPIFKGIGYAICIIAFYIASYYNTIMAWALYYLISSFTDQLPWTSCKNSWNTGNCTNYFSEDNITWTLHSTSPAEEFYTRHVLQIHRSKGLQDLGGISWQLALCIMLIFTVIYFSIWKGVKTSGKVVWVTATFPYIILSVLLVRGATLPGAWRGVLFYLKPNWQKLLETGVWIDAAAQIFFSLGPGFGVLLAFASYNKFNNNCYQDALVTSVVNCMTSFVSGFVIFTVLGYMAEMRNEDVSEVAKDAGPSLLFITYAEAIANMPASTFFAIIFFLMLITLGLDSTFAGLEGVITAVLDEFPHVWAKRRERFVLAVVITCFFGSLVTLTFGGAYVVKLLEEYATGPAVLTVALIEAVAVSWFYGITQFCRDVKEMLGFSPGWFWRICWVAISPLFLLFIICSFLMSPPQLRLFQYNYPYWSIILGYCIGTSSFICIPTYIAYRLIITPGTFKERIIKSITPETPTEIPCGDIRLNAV
T3 sequence (P28223 whole entry): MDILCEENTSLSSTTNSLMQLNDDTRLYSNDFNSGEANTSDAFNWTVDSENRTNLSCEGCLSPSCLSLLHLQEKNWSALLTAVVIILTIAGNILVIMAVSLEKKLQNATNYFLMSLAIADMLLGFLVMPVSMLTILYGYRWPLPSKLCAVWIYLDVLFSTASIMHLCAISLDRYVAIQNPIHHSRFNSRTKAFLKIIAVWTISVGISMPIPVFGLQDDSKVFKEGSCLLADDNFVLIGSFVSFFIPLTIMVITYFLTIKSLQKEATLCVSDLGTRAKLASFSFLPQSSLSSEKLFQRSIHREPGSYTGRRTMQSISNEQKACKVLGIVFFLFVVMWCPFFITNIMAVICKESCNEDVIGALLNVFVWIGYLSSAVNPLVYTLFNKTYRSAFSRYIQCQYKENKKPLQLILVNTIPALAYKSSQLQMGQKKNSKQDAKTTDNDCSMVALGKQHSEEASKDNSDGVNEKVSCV

In the case of `COc1ccc(C(CN(C)C)C2(O)CCCCC2)cc1` (stereo not drawn) [Effexor], the “anti-immobility effect in FST, anti-depressant alone” value in the assay on mice [1] was “did not improve the anti-immobility effect”.

Turning to `CNCCC(Oc1ccc(C(F)(F)F)cc1)c1ccccc1` (stereo not drawn) [Prozac], the “anti-immobility effect in FST, anti-depressant alone” value in the assay on mice [1] is reported as “did not improve the anti-immobility effect”.

Consider `Cc1cccc(N2CCN(CCCCNc3ncnc4c3nc(-c3ccccc3)n4-c3ccccc3)CC2)c1C` [Example 68, N-(4-(4-(2,3-dimethylphenyl)piperazin-1-yl)butyl)-8,9-diphenyl-9H-purine-6-amine], for which the “Immobility in forced swimming test” value in the assay with mice [2] (25 mg/kg po) amounted to 78.66 ± 11.33%; in the assay on mice [2] (50 mg/kg po) it was 72.11 ± 7.63%. The “efficacy in forced swimming test, compound alone” value with mice [1] (12.5 mg/kg or 25 mg/kg p.o.) is listed as “do not demonstrate efficacy on animal model”. In addition, the IC50 in assay [3] amounted to 0.0047 µM; in assay [4], 0.146 µM; in assay [5], 0.0024 µM.

For `CSc1ccc(-n2c(C)nc3c(NCCCN4CCN(c5cccc(C)c5C)CC4)ncnc32)cc1.Cl` [Example 86, N-(3-(4-(2,3-dimethylphenyl)piperazin-1-yl)propyl)-8-methyl-9-(4-(methylthio)phenyl)-9H-purine-6-amine hydrochloride], the “Immobility in forced swimming test” value with mice [2] (25 mg/kg po) was 66.53 ± 8.35%. Besides, the IC50 in assay [3] was found to be 0.376 µM; in assay [4], 0.064 µM; in assay [5], 0.025 µM.
